Results on four compounds are retold here after publication PMC9037180, “Ligand-based design and synthesis of N'-Benzylidene-3,4-dimethoxybenzohydrazide derivatives as potential antimicrobial agents; evaluation by in vitro, in vivo, and in silico approaches with SAR studies” (Journal of Enzyme Inhibition and Medicinal Chemistry, 2022).

Values after ≈ are worked out from the molar mass of the structure shown.

One data set has as its system P. aeruginosa ATCC10145. The data set can be described thus: Minimal inhibitory concentration (MIC), broth dilution. To be noted: Pseudomonas aeruginosa. A general note: Dilution methods test growth across graded concentrations, often in twofold steps.
The test system of another data set is Aciento sensitive. The data set can be described thus: Minimal bactericidal concentration (MBC). The class given is cell-based, A. baumanii. The settings on record: Acinetobacter baumannii. How it is done:
(§1) After determining the MIC for the target compounds, the minimal bactericidal concentration (MBC) for each compound that is required to kill each one of the above-mentioned microorganisms was assessed.

For a further data set, the system named is E. faecalis ATCC 29212. The experiment in a line: Minimal inhibitory concentration (MIC), broth dilution. To be noted: Enterococcus faecalis, ATCC29212.
In a further data set the test system is Acientobacter sensitive. Described as above. To be noted: Acinetobacter baumannii.
Data set [1] concerns E. faecalis, Acientobacter, P. auriginosa, S. aureus, S. typhi, E. coli, C. albicans. The data set can be described thus: Average MIC over the nine tested microbial species (SAR). The class given is cell-based. To be noted: for antimicrobial activity (SAR grading): based on MIC average values; for MIC: read-out: Average MIC. The text has this:
Herein, we aimed to study the structure-antimicrobial activity relationship of the newly synthesised N'-benzylidene-3,4-dimethoxybenzohydrazide derivatives based on MIC average values[51]^,[52] as represented in the supplementary data (Table SI1). Thereby, the changes in their antimicrobial potential and spectrum upon structural modifications could be unveiled, thus offering clues for structural changes that are capable of increasing the antimicrobial potential.

For the next data set, the system named is S. aureus ATCC 6538. The data set can be described thus: Minimal inhibitory concentration (MIC), broth dilution. The settings on record: Staphylococcus aureus, ATCC6538.
Another data set concerns S. typhi. The experiment in a line: Minimal bactericidal concentration (MBC). The class given is cell-based. To be noted: Salmonella enterica.
The next data set relates to C. albicans MTCC183. The experiment in a line: Minimal inhibitory concentration (MIC), broth dilution. The class given is cell-based. The settings on record: Candida albicans, MTCC183. The text has this: (§2) In vitro evaluation for antifungal activities regarding target compounds (4a–j) as well as reference drug, was done against C. albicans MTCC183 through the zone inhibition technique using well diffusion agar assay in addition to MIC.

For a further data set, the system named is Aciento MDR. The description is as above. To be noted: Acinetobacter baumannii.
Another data set has as its system P. Auriginosa. The data set can be described thus: Minimal bactericidal concentration (MBC). The class given is cell-based, P. aeruginosa. To be noted: Pseudomonas aeruginosa. The protocol: as §1
Data set [2] concerns C. albicans. The experiment in a line: Minimal bactericidal concentration (MBC). To be noted: Candida albicans. The class given is cell-based. The protocol:
as §1

For the next data set, the system named is E. faecalis. The data set can be described thus: Minimal bactericidal concentration (MBC). The class given is cell-based. To be noted: Enterococcus faecalis. The protocol:
as §1

For the next data set, the system named is S. aureus. The experiment in a line: Minimal bactericidal concentration (MBC). The class given is cell-based. To be noted: Staphylococcus aureus. The protocol:
as §1

Another data set concerns E. coli. The experiment in a line: Minimal bactericidal concentration (MBC). The class given is cell-based. To be noted: Escherichia coli. The protocol: as §1
In another data set the test system is A. baumanii ATCC 19606. The experiment in a line: Minimal inhibitory concentration (MIC), broth dilution. To be noted: Acinetobacter baumannii, ATCC19606.
The next data set has as its system E. coli ATCC 25922. The description is as above. To be noted: Escherichia coli.
Data set [3] deals with C. albicans. The data set can be described thus: Agar well diffusion assay (antifungal). The class given is cell-based. The settings on record: result in words. How it is done:
The agar well diffusion assay was first done to evaluate the antimicrobial activities of the different target compounds (4a–j) against gram-positive bacteria, gram-negative bacteria, and fungi (Table 1A). […] First, the antibacterial activities were tested against S. aureus ATCC 6538, Acientobacter (A. baumanii) ATCC 19606, S. typhi, E. coli, and P. aeruginosa as examples of the most common gram-positive and gram-negative bacteria, in comparison to vancomycin and ceftriaxone as two reference standards. In addition, the antifungal activities were screened against C. albicans, in comparison to amphotericin as a reference standard. […] The antibacterial activities of some tested compounds (4a, 4b, 4h, and 4e) against gram-positive and gram-negative bacteria by agar well diffusion assay are represented in the supplementary data (Figure SI1).
as §2
A modification of the agar well diffusion method[55] was done to detect the antimicrobial activities of different compounds (4a–j) against gram-positive bacteria, gram-negative bacteria, and fungi. […] The zones of inhibition were measured in cm.
For orientation: In agar diffusion tests the substance spreads into inoculated agar from a disc or well.

Data set [4] can be described thus: Cytotoxicity on cells using MTT assay. The class given is cell-based. The settings on record: African green monkey, Vero cells (normal mammalian cell line). The protocol:
The newly synthesised compounds were looked deeply into their efficacy using in silico, in vitro, and in vivo approaches. On the other hand, the cytotoxicity assay was performed for the tested compounds using a normal mammalian Vero cell line by the MTT assay[31]^,[32].
Moreover, the cytotoxicity values of the target compounds were determined to calculate their corresponding IC50 values through the MTT assay. The IC50 value indicates the compound’s concentration that is required to inhibit 50% of the target cells.
The MTT (3–(4,5-dimethylthiazol-2-yl)-2,5-diphenyltetrazolium bromide) tetrazolium reduction assay protocol was applied to determine the cytotoxicity of the target compounds (4a–j) on cells.

The subject of data set [5] is S. typhi clinical isolate. The data set can be described thus: Minimal inhibitory concentration (MIC), broth dilution. The class given is cell-based. To be noted: Salmonella enterica, TYPHI.

Broadly, the MIC is the least concentration at which growth counts as inhibited. As usually defined, the IC50 is the concentration that gives 50% inhibition. The low end stands for greater potency, the high end for weaker potency. As for `COc1ccc(C(=O)NN=Cc2ccc(N)cc2)cc1OC` [Compound 4a, N'-(4-aminobenzylidene)-3,4-dimethoxybenzohydrazide], the MIC with P. aeruginosa ATCC10145 (ATCC10145) came to 52.1 µM (≈ 15.6 µg/mL); against E. faecalis ATCC 29212 it was 52.1 µM (≈ 15.6 µg/mL); with Acientobacter sensitive, 52.1 µM (≈ 15.6 µg/mL); in data set [1], 58 µM (≈ 17.4 µg/mL); in the data set on S. aureus ATCC 6538 it was 26.1 µM (≈ 7.82 µg/mL); in the data set with C. albicans MTCC183, 26.1 µM (≈ 7.82 µg/mL). In addition, the MIC against Aciento MDR was 105 µM (≈ 31.3 µg/mL); in the data set with A. baumanii ATCC 19606, 105 µM (≈ 31.3 µg/mL); in the data set with E. coli ATCC 25922 (ATCC25922), 52.1 µM (≈ 15.6 µg/mL); in data set [5] it was 52.1 µM (≈ 15.6 µg/mL). Moreover, the MBC in the data set with Aciento sensitive, in the data set with S. typhi, in the data set on P. Auriginosa, against C. albicans [2], against E. faecalis and with S. aureus was 105 µM (≈ 31.3 µg/mL) throughout. In the data set on E. coli, this compound yielded an MBC of 105 µM (≈ 31.3 µg/mL). For the same compound, the “antimicrobial activity (SAR grading)” value in data set [1] is on record as “high antimicrobial activity”. Moreover, in the data set with C. albicans [3], the “zones of inhibition (antifungal activity)” value was “best antifungal activity”. This compound registered a half-maximal inhibitory concentration (IC50) in data set [4] of 407 µM.
As to `CCOc1ccc(C=NNC(=O)c2ccc(OC)c(OC)c2)cc1` [Compound 4b, N'-(4-ethoxybenzylidene)-3,4-dimethoxybenzohydrazide], the MIC against P. aeruginosa ATCC10145 (ATCC10145) was 23.8 µM (≈ 7.82 µg/mL); against P. aeruginosa ATCC10145 (ATCC10145, 24 h) it was 23.3 µM (≈ 7.64 µg/mL); against E. faecalis ATCC 29212 it was 381 µM (≈ 125 µg/mL); in the data set on Acientobacter sensitive it was 47.5 µM (≈ 15.6 µg/mL); in data set [1] it was 140 µM (≈ 46 µg/mL); with S. aureus ATCC 6538, 95.4 µM (≈ 31.3 µg/mL). The MIC in the data set on C. albicans MTCC183 was determined as 95.4 µM (≈ 31.3 µg/mL); against Aciento MDR, 381 µM (≈ 125 µg/mL); against A. baumanii ATCC 19606, 190 µM (≈ 62.6 µg/mL); against E. coli ATCC 25922 (ATCC25922), 23.8 µM (≈ 7.82 µg/mL); in the data set on E. coli ATCC 25922 (ATCC25922, 24 h) it was 23.3 µM (≈ 7.64 µg/mL); in data set [5] it was 23.8 µM (≈ 7.82 µg/mL). This compound also came in with an MIC in data set [5] (24 h) of 23.3 µM (≈ 7.64 µg/mL). Moreover, the “antimicrobial activity (SAR grading)” value in [1] was “weakest antimicrobial activity”. For the same compound, the MBC with S. typhi and with P. Auriginosa was 95.4 µM (≈ 31.3 µg/mL) in each case.
Regarding `COc1ccc(C(=O)NN=Cc2ccc(NC(C)=O)cc2)cc1OC` [Compound 4c, N-(4-((2–(3,4-dimethoxybenzoyl)hydrazono)methyl)phenyl)acetamide], the MIC is 22.9 µM (≈ 7.81 µg/mL) in the data set on P. aeruginosa ATCC10145 (ATCC10145); 45.7 µM (≈ 15.6 µg/mL) in the data set on E. faecalis ATCC 29212; 45.7 µM (≈ 15.6 µg/mL) in the data set on Acientobacter sensitive; 81.4 µM (≈ 27.8 µg/mL) in [1]; 45.7 µM (≈ 15.6 µg/mL) in the data set on S. aureus ATCC 6538; 91.8 µM (≈ 31.3 µg/mL) against C. albicans MTCC183. In addition, the MIC against Aciento MDR came to 183 µM (≈ 62.5 µg/mL); in the data set with A. baumanii ATCC 19606 it was 91.8 µM (≈ 31.3 µg/mL); with E. coli ATCC 25922 (ATCC25922), 22.9 µM (≈ 7.81 µg/mL); in data set [5], 183 µM (≈ 62.5 µg/mL). The “antimicrobial activity (SAR grading)” value in [1] is recorded as “moderate antimicrobial potential”. For the same compound, the MBC in the data set with E. faecalis and in the data set on S. aureus was 91.8 µM (≈ 31.3 µg/mL) throughout.
Turning to `COc1ccc(C(=O)NN=Cc2c(C)cc(C)cc2C)cc1OC` [Compound 4d, N'-(2,4,6-trimethylbenzylidene)-3,4-dimethoxybenzohydrazide], the MIC in the data set with P. aeruginosa ATCC10145 (ATCC10145) came out at 96 µM (≈ 31.3 µg/mL); against E. faecalis ATCC 29212 it was 96 µM (≈ 31.3 µg/mL); against Acientobacter sensitive, 192 µM (≈ 62.5 µg/mL); in data set [1] it was 149 µM (≈ 48.7 µg/mL); with S. aureus ATCC 6538, 47.8 µM (≈ 15.6 µg/mL); against C. albicans MTCC183, 192 µM (≈ 62.5 µg/mL). The MIC in the data set on Aciento MDR was found to be 383 µM (≈ 125 µg/mL); with A. baumanii ATCC 19606 it was 192 µM (≈ 62.5 µg/mL); against E. coli ATCC 25922 (ATCC25922), 47.8 µM (≈ 15.6 µg/mL); in data set [5], 96 µM (≈ 31.3 µg/mL). Also, the “antimicrobial activity (SAR grading)” value in data set [1] is recorded as “weakest antimicrobial activity”. The MBC against S. typhi, in the data set with E. faecalis, in the data set on S. aureus and with E. coli was 192 µM (≈ 62.5 µg/mL) each time.
